Test results taken from a melting point compilation (Tetko et al.).

First: CCOc1ccc(CN2C(=O)c3ccccc3C2=O)cc1C(=O)O
Second: Cc1ccc(-c2nn(Cc3ccccc3)cc2C(=O)O)cc1
The melting point of the first is higher: 172 to 174 °C for the first, 157 to 159 °C for the second.

Compared with Cc1cc(C)c(S(=O)(=O)Nc2cccc(C(F)(F)F)c2)c(C)c1, NC(=O)CCC(NS(=O)(=O)c1cccc(C(F)(F)F)c1)C(=O)O (configuration not stated) is higher in melting point: 88 to 90 °C for the first, 164 to 166 °C for the second.

First: O=C(O)c1cc(/C=C/c2cccc(Br)c2)nc2ccc(Br)cc12
Second: O=C(O)c1ccc(-c2cccc3ccccc23)s1
The melting point of the first is higher: 307 to 309 °C for the first, 249 to 251 °C for the second.

First: Nc1ccnn1Cc1ccccn1
Second: Sc1nncn1CCc1ccccn1
The melting point of the first is lower: 68 to 70 °C for the first, 204 to 206 °C for the second.

Compared with Cc1sc(=O)n(CC(=O)O)c1C, O=C(O)Cn1nnc2ccccc21 is higher in melting point: 186 to 188 °C for the first, 210 to 212 °C for the second.

Compared with CC1CCc2c(sc3ncnc(Cl)c23)C1 (configuration not stated), Cc1cc2c(Cl)ncnc2s1 is lower in melting point: 119 to 121 °C for the first, 79 to 81 °C for the second.

Compared with CCn1c(S)nnc1-c1cccs1, O=S(=O)(Cl)c1cccc(-c2cccs2)c1 is lower in melting point: 103 to 105 °C for the first, 57 to 59 °C for the second.

First: N#CCc1ccc2ccccc2n1
Second: Cc1ccc(O)c(-c2nc3ccccc3[nH]2)c1
The melting point of the first is lower: 45 to 47 °C for the first, 259 to 261 °C for the second.

First: O=S(=O)(Cl)c1ccccc1-c1ccno1
Second: O=S(=O)(Cl)CCc1ccccc1
The melting point of the first is higher: 74 to 76 °C for the first, 30 to 32 °C for the second.

First: Nc1cc(Cl)c(S(N)(=O)=O)cc1[N+](=O)[O-]
Second: Nc1ccc(Br)c(Cl)c1[N+](=O)[O-]
The melting point of the first is higher: 257 to 259 °C for the first, 106 to 108 °C for the second.

Compared with O=C(O)c1ccc(Sc2ccc(Cl)cc2)cc1, CC(=O)CC(=O)c1ccc(Cl)cc1 is lower in melting point: 203 to 205 °C for the first, 67 to 71 °C for the second.

First: CNC(=O)COc1ccc(N)c(F)c1
Second: CC1CC1C(=O)Nc1ccc(F)cc1C(=O)O (configuration not stated)
The melting point of the first is lower: 81 to 83 °C for the first, 173 to 175 °C for the second.

First: Cn1cc(C(=O)O)c(-c2coc3ccccc23)n1
Second: Cc1ccc(-c2nn(-c3ccccc3Cl)cc2C(=O)O)cc1
The melting point of the first is higher: 277 to 279 °C for the first, 257 to 259 °C for the second.

Compared with COc1cc(C(=O)O)cc(Cl)c1OC(C)C, CC(C)c1cc(C(=O)O)c2cnn(C(C)C)c2n1 is lower in melting point: 156 to 158 °C for the first, 144 to 146 °C for the second.

Compared with O=C(O)C(CO)NS(=O)(=O)c1ccc(Br)cc1 (configuration not stated), O=C(O)c1occc1CS(=O)(=O)c1ccc(Br)cc1 is lower in melting point: 239 to 241 °C for the first, 211 to 213 °C for the second.

First: Nc1ccc(C(O)c2ccccc2)cc1[N+](=O)[O-] (configuration not stated)
Second: Nc1cccc(CS(=O)c2ccccc2)c1 (configuration not stated)
The melting point of the first is lower: 120 to 122 °C for the first, 133 to 135 °C for the second.

First: FC(F)(F)c1ccc2sc(S)nc2c1
Second: C=CCNc1ccc(C(F)(F)F)cc1C#N
The melting point of the first is higher: 221 to 223 °C for the first, 54 to 56 °C for the second.

Compared with CC(C)NC(=O)Nc1ccccc1C(=O)O, CS(=O)c1ccccc1C(=O)O (configuration not stated) is lower in melting point: 178 to 180 °C for the first, 130 to 135 °C for the second.

Compared with CCC(CC)n1nccc1C(=O)O, CCN(CC)S(=O)(=O)c1cccc(C(=O)O)c1 is higher in melting point: 137 to 139 °C for the first, 164 to 166 °C for the second.

First: O=C(O)C1CCCN1C(=O)Cc1cccs1 (configuration not stated)
Second: O=C(O)C1CCN(S(=O)(=O)c2cccs2)CC1
The melting point of the first is higher: 139 to 141 °C for the first, 133 to 135 °C for the second.

Compared with CNC(=O)NC(=O)CCCCl, CN(CCO)CCC(=O)O is lower in melting point: 122 to 124 °C for the first, 89 to 91 °C for the second.

First: Cc1cc(=O)n2c([nH]c3ccccc32)c1C#N
Second: O=C1NC(=O)N(c2ccccc2)C1=O
The melting point of the first is higher: 270 to 272 °C for the first, 213 to 215 °C for the second.

Compared with CC(=O)c1cc2nc(C)ccc2o1, CCOC(=O)Cc1ccc(C(C)=O)cc1 is lower in melting point: 119 to 121 °C for the first, 55 to 57 °C for the second.

First: Fc1ccc(C(c2ccc(F)cc2)N2CCNCC2)cc1
Second: NCc1cccc(NC(=O)c2ccc(F)cc2)c1
The melting point of the first is lower: 89 to 92 °C for the first, 132 to 134 °C for the second.

First: CSc1ccc(-c2csc(N)n2)cc1
Second: COc1ccccc1-c1nc(C(=O)O)cs1
The melting point of the first is higher: 219 to 221 °C for the first, 184 to 186 °C for the second.

First: c1cc2c[nH]nc2cn1
Second: Cc1c[nH]nc1[N+](=O)[O-]
The melting point of the first is lower: 104 to 106 °C for the first, 183 to 185 °C for the second.

First: Cc1ccc(-c2cc(C(=O)O)n[nH]2)s1
Second: Cc1c(C(=O)O)nnn1-c1ccc(F)cc1
The melting point of the first is higher: 209 to 211 °C for the first, 181 to 183 °C for the second.

Compared with Cc1ccc(S(=O)(=O)N2CCN(C(=O)C(C)Cl)CC2)cc1 (configuration not stated), CC(=O)N1CCN(S(=O)(=O)c2ccc(C(=O)O)cc2)CC1 is higher in melting point: 153 to 155 °C for the first, 277 to 279 °C for the second.

Compared with O/N=C(\Cc1nccn1C(F)F)c1ccccc1, O=C(O)Cc1csc(-c2ccccc2)n1 is lower in melting point: 150 to 152 °C for the first, 89 to 91 °C for the second.

First: O=C(O)Cc1c[nH]c2ncccc12
Second: CN(CCCC(=O)O)C1=NS(=O)(=O)c2ccccc21
The melting point of the first is higher: 215 to 217 °C for the first, 159 to 161 °C for the second.

First: O=C(Cc1nc2ccccc2s1)Nc1ccc(Cl)cc1
Second: O=C(O)C(Cc1ccccc1)Cc1ccc(Cl)cc1 (configuration not stated)
The melting point of the first is higher: 164 to 166 °C for the first, 79 to 81 °C for the second.

Compared with CCOC(=O)CC(O)c1ccc(OCc2ccccc2)cc1 (configuration not stated), Nc1ccc(Oc2ccnc3ccccc23)c(F)c1 is higher in melting point: 61 to 63 °C for the first, 158 to 160 °C for the second.

Compared with Nc1nonc1C(=O)O, CCOC(=O)c1snc(C(N)=O)c1N is lower in melting point: 214 to 216 °C for the first, 205 to 207 °C for the second.

Compared with O=C1NCCNc2ccccc21, O=C(O)c1nnn(-c2ccccc2)c1C1CC1 is higher in melting point: 151 to 153 °C for the first, 174 to 176 °C for the second.

First: N#Cc1cccc(-c2ncn[nH]2)c1
Second: Nc1ccnn1-c1ccc(C(F)(F)F)cn1
The melting point of the first is higher: 144 to 146 °C for the first, 89 to 91 °C for the second.

First: O=C(O)c1cc(S)ccc1Cl
Second: O=C(O)c1cccc(Br)c1I
The melting point of the first is higher: 154 to 156 °C for the first, 139 to 141 °C for the second.

First: CC(=O)c1c(C)nsc1N
Second: Cc1cc(C)c2c(N)nsc2n1
The melting point of the first is higher: 183 to 185 °C for the first, 180 to 182 °C for the second.

First: Nc1cccc(NC(=O)NCc2ccncc2)c1
Second: Nc1ccc(NC(=O)NC2CC2)cc1
The melting point of the first is lower: 159 to 161 °C for the first, 161 to 163 °C for the second.

First: Cc1cc(C)c(C=O)cc1C
Second: Cc1cc(C=O)cc(C)c1OC(F)F
The melting point of the first is lower: 41 to 46 °C for the first, 56 to 58 °C for the second.

First: Cc1cc(N)n(C)c(=O)c1
Second: Cc1cc(C)nc(N)c1
The melting point of the first is higher: 192 to 194 °C for the first, 63 to 64 °C for the second.

First: CN(N)C(N)=O
Second: NC(=O)c1cn[nH]c1
The melting point of the first is lower: 108 to 110 °C for the first, 223 to 225 °C for the second.

Compared with CCc1nn2c(=O)cc(CCl)nc2s1, Cc1nc2c(C#N)cnn2c(O)c1CC(=O)O is higher in melting point: 97 to 99 °C for the first, 275 to 277 °C for the second.

Compared with Cn1c(N)c(C(=O)CC#N)c(=O)n(C)c1=O, CC(=O)Cn1c(=O)oc(=O)c2ccccc21 is lower in melting point: 260 to 262 °C for the first, 151 to 153 °C for the second.

First: Cc1ccccc1CCNC(=O)C(C)Cl (configuration not stated)
Second: Cc1ccc([N+](=O)[O-])cc1C(C)Cl (configuration not stated)
The melting point of the first is higher: 59 to 61 °C for the first, 44 to 46 °C for the second.

First: CC(C)C(Br)C(=O)N1CCCCC1 (configuration not stated)
Second: O=S1(=O)CCN(S(=O)(=O)Cl)CC1
The melting point of the first is lower: 61 to 63 °C for the first, 177 to 179 °C for the second.

First: NC(=O)CCn1ccnc1
Second: CN(C)c1cc(N)ccn1
The melting point of the first is lower: 137 to 139 °C for the first, 146 to 148 °C for the second.

First: NCc1cc(OCC(F)F)ccn1
Second: COc1ncc(Br)cn1
The melting point of the first is higher: 71 to 73 °C for the first, 55 to 60 °C for the second.

First: CC1CCN(c2ccc([N+](=O)[O-])cc2C(=O)O)CC1
Second: CON(C)S(=O)(=O)c1cc([N+](=O)[O-])ccc1Cl
The melting point of the first is higher: 160 to 162 °C for the first, 123 to 125 °C for the second.

First: CC(C)(C)c1nnc(CCl)o1
Second: COc1ccc2c(C)cc3nnc(S)n3c2c1
The melting point of the first is lower: 42 to 44 °C for the first, 256 to 258 °C for the second.

First: O=C1COc2c(F)cc(Br)cc21
Second: Cc1ccc(N2N=C(Br)CC2C(=O)O)cc1 (configuration not stated)
The melting point of the first is higher: 102 to 104 °C for the first, 79 to 81 °C for the second.

Compared with Cc1nc(O)nc(O)c1N, CN(C)S(=O)(=O)c1ccc(Cl)c(N)c1 is lower in melting point: 259 to 261 °C for the first, 119 to 121 °C for the second.
